Test results: PubChem BioAssay AID1745844 (Carcinogenic Potency Database (CPDB), 2022)
Where “and” joins values, the source holds several entries; their conditions need not be identical. Identical values can stand only once. Calls of active or inactive are those of the source. No rule for the calls is given here.

Tested on: rodent lifetime carcinogenesis bioassay, tumor incidence TD50
Experiment: chronic cancer bioassays in animals – CPDB, compiled studies (AID 1745844)

Work on CC1CN(N=O)CC(C)O1 (stereo not given) yielded a TD50 (hamster, strain Syrian Golden, females, by gavage, site: any site (literature study), lesion: several types, types named in the paper, dosed 59 weeks, study length 83 weeks) of 1.55 mg/kg/day, a TD50 (hamster, strain Syrian Golden, females, by gavage, site: forestomach, lesion: several types, types named in the paper, dosed 59 weeks, study length 83 weeks) of 9.45 mg/kg/day and a TD50 (hamster, strain Syrian Golden, females, by gavage, site: gall bladder, lesion: several types, types named in the paper, dosed 59 weeks, study length 83 weeks) of 12.9 mg/kg/day. The carcinogen call (hamster, strain Syrian Golden, females, by gavage, site: larynx, lesion: squamous-cell papilloma, dosed 59 weeks, study length 83 weeks) was “positive”, the TD50 (hamster, strain Syrian Golden, females, by gavage, site: liver, lesion: several types, types named in the paper, dosed 59 weeks, study length 83 weeks) was 11 mg/kg/day and the TD50 (hamster, strain Syrian Golden, females, by gavage, site: lung, lesion: several types, types named in the paper, dosed 59 weeks, study length 83 weeks) was 34.6 mg/kg/day. It also gave a TD50 (hamster, strain Syrian Golden, females, by gavage, site: pancreas, lesion: several types, types named in the paper, dosed 59 weeks, study length 83 weeks) of 5.75 mg/kg/day, a TD50 (hamster, strain Syrian Golden, females, by gavage, site: pancreatic duct, lesion: adenoma, dosed 59 weeks, study length 83 weeks) of 6.99 mg/kg/day and a TD50 (hamster, strain Syrian Golden, females, by gavage, site: pancreatic duct, lesion: carcinoma, dosed 59 weeks, study length 83 weeks) of 32.1 mg/kg/day. The TD50 (hamster, strain Syrian Golden, females, by gavage, site: several sites, sites named in the paper, lesion: several types, types named in the paper, dosed 59 weeks, study length 83 weeks) was 9.17 mg/kg/day and 16.9 mg/kg/day, the TD50 (hamster, strain Syrian Golden, females, by gavage, site: trachea, lesion: papillary polyp, dosed 59 weeks, study length 83 weeks) was 6.4 mg/kg/day and the TD50 (hamster, strain Syrian Golden, males, by gavage, site: any site (literature study), lesion: several types, types named in the paper, dosed 66 weeks, study length 87 weeks) was 1.68 mg/kg/day. It also gave a TD50 (hamster, strain Syrian Golden, males, by gavage, site: forestomach, lesion: several types, types named in the paper, dosed 66 weeks, study length 87 weeks) of 2.91 mg/kg/day, a TD50 (hamster, strain Syrian Golden, males, by gavage, site: larynx, lesion: squamous-cell papilloma, dosed 66 weeks, study length 87 weeks) of 27.3 mg/kg/day and a TD50 (hamster, strain Syrian Golden, males, by gavage, site: liver, lesion: several types, types named in the paper, dosed 66 weeks, study length 87 weeks) of 10.1 mg/kg/day. The TD50 (hamster, strain Syrian Golden, males, by gavage, site: lung, lesion: several types, types named in the paper, dosed 66 weeks, study length 87 weeks) was 1.21 mg/kg/day, the TD50 (hamster, strain Syrian Golden, males, by gavage, site: pancreas, lesion: several types, types named in the paper, dosed 66 weeks, study length 87 weeks) was 2.78 mg/kg/day and the TD50 (hamster, strain Syrian Golden, males, by gavage, site: pancreatic duct, lesion: adenoma, dosed 66 weeks, study length 87 weeks) was 21.2 mg/kg/day. For the same molecule, the TD50 (hamster, strain Syrian Golden, males, by gavage, site: pancreatic duct, lesion: carcinoma, dosed 66 weeks, study length 87 weeks) was 6.67 mg/kg/day and the TD50 (hamster, strain Syrian Golden, males, by gavage, site: trachea, lesion: papillary polyp, dosed 66 weeks, study length 87 weeks) was 10.5 mg/kg/day.

COC1COC(OC2COC(OC3COC(OC4COC(OC)C(OS(=O)(=O)O)C4OS(=O)(=O)O)C(OC4OC(C(=O)O)C(OC)C(OS(=O)(=O)O)C4OS(=O)(=O)O)C3OS(=O)(=O)O)C(OS(=O)(=O)O)C2OS(=O)(=O)O)C(OS(=O)(=O)O)C1OS(=O)(=O)O (stereo not given) showed a TD50 (mouse, strain B6C3F1, females, by gavage, site: all sites, lesion: hemangioma + hemangiosarcoma, dosed 104 weeks, study length 104 weeks) of 1700 mg/kg/day, a TD50 (mouse, strain B6C3F1, females, by gavage, site: all sites, lesion: hemangioma, dosed 104 weeks, study length 104 weeks) of 4340 mg/kg/day and a TD50 (mouse, strain B6C3F1, females, by gavage, site: all sites, lesion: malignant lymphoma, dosed 104 weeks, study length 104 weeks) of 927 mg/kg/day. For the same molecule, the TD50 (mouse, strain B6C3F1, females, by gavage, site: any site (literature study), lesion: several types, types named in the paper, dosed 104 weeks, study length 104 weeks) was 660 mg/kg/day, the TD50 (mouse, strain B6C3F1, females, by gavage, site: liver, lesion: hemangiosarcoma + hepatocellular adenoma + hepatocellular carcinoma, dosed 104 weeks, study length 104 weeks) was 663 mg/kg/day and the TD50 (mouse, strain B6C3F1, females, by gavage, site: liver, lesion: hemangiosarcoma, dosed 104 weeks, study length 104 weeks) was 3160 mg/kg/day. For the same molecule, the TD50 (mouse, strain B6C3F1, females, by gavage, site: liver, lesion: hepatocellular adenoma + hepatoblastoma + hepatocellular carcinoma, dosed 104 weeks, study length 104 weeks) was 867 mg/kg/day, the TD50 (mouse, strain B6C3F1, females, by gavage, site: liver, lesion: hepatocellular adenoma + hepatocellular carcinoma, dosed 104 weeks, study length 104 weeks) was 867 mg/kg/day and the TD50 (mouse, strain B6C3F1, females, by gavage, site: liver, lesion: hepatocellular adenoma, dosed 104 weeks, study length 104 weeks) was 991 mg/kg/day. For the same molecule, the TD50 (mouse, strain B6C3F1, males, by gavage, site: all sites, lesion: hemangiosarcoma, dosed 104 weeks, study length 104 weeks) was 1340 mg/kg/day, the TD50 (mouse, strain B6C3F1, males, by gavage, site: any site (literature study), lesion: several types, types named in the paper, dosed 104 weeks, study length 104 weeks) was 297 mg/kg/day and the TD50 (mouse, strain B6C3F1, males, by gavage, site: liver, lesion: hemangiosarcoma, dosed 104 weeks, study length 104 weeks) was 1090 mg/kg/day. For the same molecule, the TD50 (mouse, strain B6C3F1, males, by gavage, site: liver, lesion: hepatocellular adenoma + hepatoblastoma + hepatocellular carcinoma, dosed 104 weeks, study length 104 weeks) was 538 mg/kg/day, the TD50 (mouse, strain B6C3F1, males, by gavage, site: liver, lesion: hepatocellular adenoma + hepatocellular carcinoma, dosed 104 weeks, study length 104 weeks) was 499 mg/kg/day and the TD50 (mouse, strain B6C3F1, males, by gavage, site: lung, lesion: alveolar/bronchiolar adenoma + alveolar/bronchiolar carcinoma, dosed 104 weeks, study length 104 weeks) was 8000 mg/kg/day. The TD50 (rat, strain Fischer 344, females, by gavage, site: any site (literature study), lesion: several types, types named in the paper, dosed 104 weeks, study length 104 weeks) was 1980 mg/kg/day (inactive) and the carcinogen call (rat, strain Fischer 344, males, by gavage, site: any site (literature study), lesion: several types, types named in the paper, dosed 104 weeks, study length 104 weeks) was “negative (inactive)”.

With [O]=[Bi] the carcinogen call (rat, strain BD, both sexes, in feed, site: hypophysis, lesion: adenoma, dosed 104 weeks, study length 120 weeks) was “negative (inactive)”, the carcinogen call (rat, strain BD, both sexes, in feed, site: mammary gland, lesion: carcinoma, dosed 104 weeks, study length 120 weeks) was “negative (inactive)” and the TD50 (rat, strain BD, both sexes, in feed, site: mammary gland, lesion: fibroadenoma, dosed 104 weeks, study length 120 weeks) was 150000 mg/kg/day (inactive).
